Where two headings read alike, the source gives them in different places.
What was measured:
[1] = test system: Hep-G2 (ATCC No. HB-8065) tumor cell line; assay: Cell proliferation test (intracellular ATP, CellTiterGlo) on Hep-G2; type: cell-based; settings: read-out: Activity in a cell proliferation test, expressed as TC50 value, Hep-G2
Procedure: (§1) A test which is based on determining the intracellular concentration of ATP is employed for detecting the inhibition of cell proliferation. It is possible to use known tumor cell lines such as Hep-G2 and Colo205. In this test, the ATP content of metabolically active cells serves, in a luciferase reaction, as a measure of the number of living cells.
(§2) The compounds of the formula (II)-(VI) were used in the test in a single dose of 0.3-40 μM and a dose dependency given as a TC50 value, with (IIA) and (IIB) in each case denoting a diastereomer of the compound of the formula (II): […]
(§3) The tumor cell lines Hep-G2 (ATCC No. HB-8065) and COLO 205 (ATCC No. CCL-222) were used for determining the cell proliferation. The cell lines were sown in cell culture medium at the rate of 1000 cells/well [Hep-G2] and, respectively, 3500 cells/well [Colo205] and incubated for 4 hours at 37° C. and 5% CO2.
Medium for Hep-G2: Dulbecco's modified Eagle's medium/Ham's F12 mix (Gibco); NEAA (10%; nonessential amino acids, Gibco), sodium pyruvate (1%, Gibco), L-glutamine (1%, Gibco), fetal calf serum (5%; PAA)].
(§4) After 4 hours, compounds (II), (III) and (IV) and bengamides E and F, dissolved in DMSO/cell culture medium, were added at various dilutions and the mixtures were incubated for 72 hours at 37° C. and 5% CO2. The intracellular content of ATP was determined using the test reagent CellTiterGlo (Promega).

[2] = test system: COLO 205 (ATCC No. CCL-222) tumor cell line; assay: Cell proliferation test (intracellular ATP, CellTiterGlo) on COLO 205; type: cell-based; settings: read-out: Activity in a cell proliferation test, expressed as TC50 value, Colo 205
Procedure: as §1, §2, §3
Medium for COLO 205: RPMI 1640 (Gibco), L-glutamine (1%, Gibco), HEPES (1%, Gibco), fetal calf serum (10%, PAA).
as §4

[3] = test system: eukaryotic cells, nematodes and bacteria; settings: Adamczewski et al., J. Org. Chem. 1986; cited from earlier work
cell proliferation = settings: stops cell division at the G1/S restriction point and in the G2/M phase; cited from earlier work
[4] = Colo 205, 72 hours incubation, ATP content, tested at 0.3-40 μM

CCC(C)/C=C/C(O)C(O)C(O)[C@@H](OC)C(=O)N[C@H]1CCCCN(C)C1=O (stereo partly shown) [(III)]
TC50 (50% inhibition of cell proliferation) ([1]; Homo sapiens, HepG2, 72 h): 9 µM | CC50 ([2]; Homo sapiens, COLO 205, 72 h): 15 µM

CCC(C)/C=C/C(O)C(O)C(O)[C@@H](OC)C(=O)N[C@H]1CCC(O)CNC1=O (stereo partly shown) [(IV)]
TC50 (50% inhibition of cell proliferation) ([1]; Homo sapiens, HepG2, 72 h): > 40 µM | CC50 [2, 4]: 42 µM

CCCCCCCCCCCCCC(=O)O[C@H]1CC[C@H](NC(=O)[C@H](OC)[C@H](O)[C@@H](O)[C@H](O)/C=C/C(C)C)C(=O)NC1 [Bengamide A]
Biotoxicity to eukaryotic cells, nematodes and bacteria [3]: biotoxic

CCCCCCCCCCCCCC(=O)O[C@H]1CC[C@H](NC(=O)[C@H](OC)[C@H](O)[C@@H](O)[C@H](O)/C=C/C(C)C)C(=O)N(C)C1 [Bengamide B]
Biotoxicity to eukaryotic cells, nematodes and bacteria [3]: biotoxic

CO[C@@H](C(=O)N[C@H]1CCCCNC1=O)[C@H](O)[C@@H](O)[C@H](O)/C=C/C(C)C [Bengamide E]
TC50 (50% inhibition of cell proliferation) ([1]; Homo sapiens, HepG2, Hep-G2, 72 hours incubation, ATP content, tested at 0.3-40 μM): 36 µM | CC50 [2, 4]: 46 µM | Inhibition of cell proliferation (cell proliferation): inhibits cell proliferation

CO[C@@H](C(=O)N[C@H]1CCCCN(C)C1=O)[C@H](O)[C@@H](O)[C@H](O)/C=C/C(C)C [Bengamide F]
TC50 (50% inhibition of cell proliferation) ([1]; Hep-G2, 72 hours incubation, ATP content, tested at 0.3-40 μM): 27 µM | CC50 [2, 4]: 33 µM

CCC(C)/C=C/C(O)C(O)C(O)[C@@H](OC)C(=O)N[C@H]1CCCCNC1=O (stereo partly shown) [Compound (II)]
TC50 (50% inhibition of cell proliferation) ([1]; Homo sapiens, HepG2, 72 h): 16 µM | CC50 ([2]; Homo sapiens, COLO 205, 72 h): 27 µM

From US7638320B2, “Bengamide derivatives, process for preparing them, and their use” (sanofi-aventis Deutschland GmbH, priority 2003, dated 2009)
